Target: T1, human 5HT1A receptor (Homo sapiens, UniProt P08908)
T1 construct: expressed in transfected cells; host or cells: CHO cells (stably transfected)
T1 sequence (P08908 1-422): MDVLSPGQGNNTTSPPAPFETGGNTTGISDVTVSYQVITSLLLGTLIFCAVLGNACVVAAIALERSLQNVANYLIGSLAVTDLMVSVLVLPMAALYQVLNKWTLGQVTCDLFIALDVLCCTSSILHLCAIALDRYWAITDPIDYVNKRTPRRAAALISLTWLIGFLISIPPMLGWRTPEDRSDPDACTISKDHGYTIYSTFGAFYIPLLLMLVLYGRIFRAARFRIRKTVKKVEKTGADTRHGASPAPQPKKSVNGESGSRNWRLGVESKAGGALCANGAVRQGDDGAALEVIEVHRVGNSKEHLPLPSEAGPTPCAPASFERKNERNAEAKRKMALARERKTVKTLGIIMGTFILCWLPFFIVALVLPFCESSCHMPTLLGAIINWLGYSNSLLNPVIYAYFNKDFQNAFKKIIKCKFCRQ
Assay: 5-HT1A Receptor Binding Assay (displacement of [3H]8-OH-DPAT in CHO cells stably transfected with human 5HT1A receptor)
Conditions: displacement of 8-OH-DPAT, 1.5 nM ligand, 30 minute incubation at room temperature
Description: High affinity for the serotonin 5--HT1A receptor was established by testing the claimed compound's ability to displace [^3 ]8-OH-DPAT binding in CHO cells stably transfected with human 5HT1A receptor. Stably transfected CHO cells are grown in DMEM containing 10% heat inactivated FBS and non-essential amino acids. Cells are scraped off the plate, transferred to centrifuge tubes, and washed twice by centrifugation (2000 rpm for 10 min., 4° C.) in buffer (50 mM Tris pH 7.5). The resulting pellets are aliquoted and placed at -80° C. On the day of assay, the cells are thawed on ice and resuspended in buffer. The binding assay is performed in a 96 well microtiter plate in a total volume of 250 μL. Non-specific binding is determined in the presence of […] 5HT, final ligand concentration is 1.5 nM. Following a 30 minute incubation at room temperature, the reaction is terminated by the addition of ice cold buffer and rapid filtration through a GF/B filter presoaked for 30 minutes in 0.5% PEI. Compounds are initially tested in a single point assay to determine percent inhibition at 1, 0.1, and 0.01 mM, and Ki values are determined for the active compounds.

Ki [nM] | Compound
4.72 | c1ccc(Cc2nc(C3CCCCC3)oc2CN2CCN(c3cccc4c3OCCO4)CC2)cc1 [Example 9, 1-(4-Benzyl-2-cyclohexyl-oxazol-5-ylmethyl)-4(2,3-dihydro-benzo[1,4]dioxin-5-yl)-piperazine]
7.1 | c1ccc(Cc2nc(C3CCCCC3)oc2CN2CCN(c3cccc4[nH]ccc34)CC2)cc1 [Example 10, 4-[4-(4-Benzyl-2-cyclohexyl-oxazol-5-ylmethyl)-piperazin-1-yl]-1H-indole]
0.88 | COc1ccccc1N1CCN(Cc2oc(C3CCCCC3)nc2Cc2ccccc2)CC1 [Example 11, 1-(4Benzyl-2-cyclohexyl-oxazol-5-ylmethyl)-4-(2-methoxyphenyl)-piperazine]
